Article PMC7866232, “New Substituted 5-Benzylideno-2-Adamantylthiazol[3,2-b][1,2,4]Triazol-6(5H)ones as Possible Anti-Inflammatory Agents” (Molecules, 2021)
Where two headings read alike, the source gives them in different places.

Assays:
[1] = test system: carrageenin-induced mouse paw edema; assay: Carrageenin-induced mouse paw edema (CPE), in vivo anti-inflammatory activity; conditions: Mus musculus, ip, mice, 0.01 mmol/kg body weight intraperitoneally, given simultaneously with carrageenin (2%, 0.05 mL)
Method: The in vivo anti-inflammatory effect of the tested compounds was assessed by using the functional model of carrageenin-induced mouse paw edema and is presented as the percentage of inhibition of induction of edema at the right hind paw (Table 1).
Edema was measured by weight increase of the right hind paw in comparison to the […] left paw.
Twenty-five thiazolo[3,2-b]1,2,4-triazole derivatives, previously synthesized were evaluated for their anti-inflammatory activity, in vivo using groups of 6–10 mice of R’’’ strain.
The anti-inflammatory activity of the compounds synthesized was studied with the Carragenin-Induced Paw Edema acute inflammation test using an aqueous carrageenin solution (2%, 0,05 mL), [14] which was injected intradermally in the footpad of the right hind limb muscle (mice R’’’ groups of 6–10 animals), whereas the left end serves as a reference. In the experimental procedure both sex male mice were used, excluding pregnant. Animals were fasted during the time of the experiment. The tested compounds (0.01 mmol/kg body weight), were suspended in water, with few drops of Tween 80 and ground in a mortar before use and were given intraperitoneally simultaneously with the carrageenin injection.

ovine COX-1 = biological target: T1, ovine COX-1 (Ovis aries, UniProt P05979); assay: COX inhibitor screening assay in vitro, COX-1; type: biochemical; conditions: read-out: COX-1 (%) inhibition
T1 construct: purchased Cayman Chemical Co., Ann Arbor, MI, USA
T1 sequence (P05979 25-600): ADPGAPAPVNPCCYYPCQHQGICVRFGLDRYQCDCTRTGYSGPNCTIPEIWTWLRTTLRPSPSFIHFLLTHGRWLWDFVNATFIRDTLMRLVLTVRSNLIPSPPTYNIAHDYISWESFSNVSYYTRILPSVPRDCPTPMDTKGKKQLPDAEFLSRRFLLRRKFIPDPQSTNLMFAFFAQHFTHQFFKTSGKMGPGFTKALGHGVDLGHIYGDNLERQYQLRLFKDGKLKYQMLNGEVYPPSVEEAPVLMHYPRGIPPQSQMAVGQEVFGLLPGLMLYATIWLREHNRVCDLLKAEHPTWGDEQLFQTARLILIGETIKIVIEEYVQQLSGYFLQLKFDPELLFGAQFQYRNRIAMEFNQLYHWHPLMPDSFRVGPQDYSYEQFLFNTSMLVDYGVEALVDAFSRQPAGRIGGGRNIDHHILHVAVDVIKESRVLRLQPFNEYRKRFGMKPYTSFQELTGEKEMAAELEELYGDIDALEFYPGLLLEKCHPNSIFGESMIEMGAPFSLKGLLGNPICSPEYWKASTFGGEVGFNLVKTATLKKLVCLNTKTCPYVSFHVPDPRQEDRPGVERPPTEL
Method: (§1) The COX-1 and COX-2 activities of the compounds were measured using ovine COX-1 and human recombinant COX-2 enzymes included in the “COX I inhibitor Screening Assay” kit provided by Cayman (Cayman Chemical Co., Ann Arbor, MI, USA). The assay directly measures PGF2 a produced by SnCl2 reduction of COX-derived PGH2. The prostanoid production was quantified via enzyme immunoassay using a broadly specific antibody that binds to all the major prostaglandin compounds. […]

soybean lipoxygenase = biological target: T2, soybean lipoxygenase (Glycine max, UniProt P08170); assay: Soybean lipoxygenase inhibition in vitro; type: biochemical; conditions: 0.1 mM sodium linoleate, 234 nm
T2 sequence (P08170 1-839): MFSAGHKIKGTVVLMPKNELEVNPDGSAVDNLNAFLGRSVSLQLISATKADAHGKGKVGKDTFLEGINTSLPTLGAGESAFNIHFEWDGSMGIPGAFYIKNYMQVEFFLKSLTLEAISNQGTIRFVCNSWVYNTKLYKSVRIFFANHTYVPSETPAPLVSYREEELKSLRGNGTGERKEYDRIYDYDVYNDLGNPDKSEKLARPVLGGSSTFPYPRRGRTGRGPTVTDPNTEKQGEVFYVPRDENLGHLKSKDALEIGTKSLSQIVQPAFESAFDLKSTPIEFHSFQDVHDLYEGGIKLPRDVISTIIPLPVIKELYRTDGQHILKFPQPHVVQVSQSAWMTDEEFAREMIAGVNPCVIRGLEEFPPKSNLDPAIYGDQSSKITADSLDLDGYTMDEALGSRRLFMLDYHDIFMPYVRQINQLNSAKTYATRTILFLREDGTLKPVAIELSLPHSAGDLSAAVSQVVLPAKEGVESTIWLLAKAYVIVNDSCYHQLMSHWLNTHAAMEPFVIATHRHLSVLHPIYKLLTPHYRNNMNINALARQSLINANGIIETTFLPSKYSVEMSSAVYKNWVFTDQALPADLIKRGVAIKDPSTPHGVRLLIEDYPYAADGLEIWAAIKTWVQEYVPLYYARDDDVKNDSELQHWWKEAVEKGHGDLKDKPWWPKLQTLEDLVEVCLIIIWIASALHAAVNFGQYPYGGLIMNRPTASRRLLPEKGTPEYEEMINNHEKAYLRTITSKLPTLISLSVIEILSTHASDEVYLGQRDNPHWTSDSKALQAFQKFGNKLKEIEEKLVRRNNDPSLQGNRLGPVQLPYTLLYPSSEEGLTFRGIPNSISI
Method: The compounds tested were dissolved in DMSO and preincubated for 4 min at 28 °C in the presence of 753 U/mL 5-soybean lipoxygenase (5-LOX). The enzyme reaction was triggered by addition of a final concentration of 0.1 mM sodium linoleate. The conversion of sodium linoleate 13-hydrouperoxylinoleic acid was measured at 234 nm. Absorbance was measured at time 0 and 3 min.

human recombinant COX-2 = biological target: T3, human recombinant COX-2 (Homo sapiens, UniProt P35354); assay: COX inhibitor screening assay in vitro, COX-2; type: biochemical; conditions: read-out: COX-2 (%) inhibition
T3 construct: purchased Cayman Chemical Co., Ann Arbor, MI, USA
T3 sequence (P35354 18-604): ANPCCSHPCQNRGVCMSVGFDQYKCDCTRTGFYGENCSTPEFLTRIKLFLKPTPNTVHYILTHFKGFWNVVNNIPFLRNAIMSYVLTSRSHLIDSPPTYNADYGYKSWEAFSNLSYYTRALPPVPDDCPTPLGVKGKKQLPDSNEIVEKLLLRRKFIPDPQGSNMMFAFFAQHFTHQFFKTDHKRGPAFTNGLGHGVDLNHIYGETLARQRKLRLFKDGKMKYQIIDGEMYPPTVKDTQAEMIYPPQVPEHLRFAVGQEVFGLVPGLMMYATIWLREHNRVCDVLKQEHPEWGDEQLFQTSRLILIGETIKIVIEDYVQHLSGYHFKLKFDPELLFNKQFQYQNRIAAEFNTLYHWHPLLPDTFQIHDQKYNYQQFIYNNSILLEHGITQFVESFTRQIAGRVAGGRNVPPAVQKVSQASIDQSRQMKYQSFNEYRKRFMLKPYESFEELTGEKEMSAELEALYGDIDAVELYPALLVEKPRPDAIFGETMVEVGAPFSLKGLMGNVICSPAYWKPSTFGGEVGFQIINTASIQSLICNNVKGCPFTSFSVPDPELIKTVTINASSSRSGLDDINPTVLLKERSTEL
Method: as §1

[2] = at 200 μM, 0.1 μM arachidonic acid

| SMILES | inhibition in vivo at 10 µmol/kg [1] [%] | inhibition at 200 µM (ovine COX-1; [2]) [%] | LOX (%) inhibition (soybean lipoxygenase) [%] | inhibition at 200 µM (human recombinant COX-2; [2]) [%] | inhibition at 200 µM (ovine COX-1) [%] | inhibition at 200 µM (human recombinant COX-2) [%] |
| --- | --- | --- | --- | --- | --- | --- |
| O=c1/c(=C/c2ccc([N+](=O)[O-])cc2)sc2nc(C34CC5CC(CC(C5)C3)C4)nn12 [Compound 14] | 40 to 49 | – | – | – | – | – |
| O=c1/c(=C/c2cccc(F)c2)sc2nc(C34CC5CC(CC(C5)C3)C4)nn12 [Compound 15] | 51 to 67 | 36 | 27.15 | 23 | – | – |
| O=c1/c(=C/c2ccc(F)cc2)sc2nc(C34CC5CC(CC(C5)C3)C4)nn12 [Compound 16] | 51 to 67 | 19 | 16.13 | 0 | – | – |
| O=c1/c(=C/c2ccccc2Br)sc2nc(C34CC5CC(CC(C5)C3)C4)nn12 [Compound 17] | 51 to 67 | 16 | 17.15 | 0 | – | – |
| O=c1/c(=C/c2cccc(Br)c2)sc2nc(C34CC5CC(CC(C5)C3)C4)nn12 [Compound 18] | 51 to 67 | 0 | 31.43 | 37 | – | – |
| O=c1/c(=C/c2ccc(Br)cc2)sc2nc(C34CC5CC(CC(C5)C3)C4)nn12 [Compound 19] | 51 to 67 | 16 | 8.07 | 36 | – | – |
| O=c1/c(=C/c2ccccc2Cl)sc2nc(C34CC5CC(CC(C5)C3)C4)nn12 [Compound 20] | 40 to 49 | – | – | – | – | – |
| O=c1/c(=C/c2cccc(Cl)c2)sc2nc(C34CC5CC(CC(C5)C3)C4)nn12 [Compound 21] | 40 to 49 | – | – | – | – | – |
| O=c1/c(=C/c2ccc(Cl)cc2)sc2nc(C34CC5CC(CC(C5)C3)C4)nn12 [Compound 22] | 51 to 67 | – | – | – | – | – |
| O=c1/c(=C/c2cccc(Cl)c2Cl)sc2nc(C34CC5CC(CC(C5)C3)C4)nn12 [Compound 23] | 37 | 46 | 11.43 | 20 | – | – |
| O=c1/c(=C/c2ccc(Cl)cc2Cl)sc2nc(C34CC5CC(CC(C5)C3)C4)nn12 [Compound 24] | 37 | – | – | – | – | – |
| O=c1/c(=C/c2c(Cl)cccc2Cl)sc2nc(C34CC5CC(CC(C5)C3)C4)nn12 [Compound 25] | 32 | – | – | – | – | – |
| COc1ccc2cc([C@H](C)C(=O)O)ccc2c1 [Naproxen, reference compound] | – | – | – | – | 60 | 65 |
